In PubChem BioAssay (NCI):
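1) Cells in 96-well plates. 2) Compound, 48 h, 5 concentrations. 3) Linear interpolation between surrounding doses. 4) Unreached endpoint = highest concentration. At the TGI there is no net growth.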

What was measured:
Test in all cases: inhibition of tumour cell growth, NCI panel, 48 h
SNB-78 CNS = tested on: SNB-78 CNS
HOP-18 NSCLC = tested on: HOP-18 NSCLC
HOP-92 NSCLC = tested on: HOP-92 NSCLC
ACHN renal = tested on: ACHN renal
OVCAR-3 ovarian = tested on: OVCAR-3 ovarian
786-0 renal = tested on: 786-0 renal
M19-MEL melanoma = tested on: M19-MEL melanoma
A549 NSCLC = tested on: A549 NSCLC
SK-OV-3 ovarian = tested on: SK-OV-3 ovarian
HCT-15 colon = tested on: HCT-15 colon
DMS 273 small cell lung = tested on: DMS 273 small cell lung
U251 CNS = tested on: U251 CNS
SF-295 CNS = tested on: SF-295 CNS
NCI-H23 lung = tested on: NCI-H23 lung
LOX IMVI melanoma = tested on: LOX IMVI melanoma
LXFL 529 NSCLC = tested on: LXFL 529 NSCLC
KM20L2 colon = tested on: KM20L2 colon
MOLT-4 leukemia = tested on: MOLT-4 leukemia
SNB-75 CNS = tested on: SNB-75 CNS
SNB-19 CNS = tested on: SNB-19 CNS
SK-MEL-5 melanoma = tested on: SK-MEL-5 melanoma
HCC-2998 colon = tested on: HCC-2998 colon
HT29 colon = tested on: HT29 colon
A498 renal = tested on: A498 renal
OVCAR-5 ovarian = tested on: OVCAR-5 ovarian
SF-539 CNS = tested on: SF-539 CNS
HCT-116 colon = tested on: HCT-116 colon
OVCAR-8 ovarian = tested on: OVCAR-8 ovarian
UACC-62 melanoma = tested on: UACC-62 melanoma
SW-620 colon = tested on: SW-620 colon
NCI-H226 lung = tested on: NCI-H226 lung
CAKI-1 renal = tested on: CAKI-1 renal
NCI-H522 lung = tested on: NCI-H522 lung
COLO 205 colon = tested on: COLO 205 colon
SK-MEL-2 melanoma = tested on: SK-MEL-2 melanoma
UACC-257 melanoma = tested on: UACC-257 melanoma
KM12 colon = tested on: KM12 colon
SN12C renal = tested on: SN12C renal
HL-60(TB) leukemia = tested on: HL-60(TB) leukemia
CCRF-CEM leukemia = tested on: CCRF-CEM leukemia
NCI-H460 lung = tested on: NCI-H460 lung
M14 melanoma = tested on: M14 melanoma
HOP-62 NSCLC = tested on: HOP-62 NSCLC
EKVX NSCLC = tested on: EKVX NSCLC
DLD-1 colon = tested on: DLD-1 colon
UO-31 renal = tested on: UO-31 renal
MALME-3M melanoma = tested on: MALME-3M melanoma
DMS 114 small cell lung = tested on: DMS 114 small cell lung
SF-268 CNS = tested on: SF-268 CNS
K-562 leukemia = tested on: K-562 leukemia
OVCAR-4 ovarian = tested on: OVCAR-4 ovarian
RXF-631 renal = tested on: RXF-631 renal
SK-MEL-28 melanoma = tested on: SK-MEL-28 melanoma
RXF 393 renal = tested on: RXF 393 renal
RPMI-8226 leukemia = tested on: RPMI-8226 leukemia
XF 498 CNS = tested on: XF 498 CNS
TK-10 renal = tested on: TK-10 renal
IGROV1 ovarian = tested on: IGROV1 ovarian
SR leukemia = tested on: SR leukemia

Measured: TGI

CC(=O)NC(Cc1ccccc1)C(=S)N1CCCC1 (centres undefined)
not listed: SR leukemia
> 100 µM: all other assays above

Cc1nn(C(=O)CC(=O)Nc2ccccc2Cl)c(C)c1N=Nc1ccccc1Cl
not listed: NCI-H226 lung | NCI-H522 lung | RPMI-8226 leukemia
> 100 µM: all other assays above
